Literature values, collected in patent publication US20210077514A1, “Nutraceutical Composition for Improving Overall Health” (priority 2019, published 2021).
Like-named read-outs stand apart in the source and are kept apart here. Blank lines part the entries; values can stand above or below the molecule they belong to.

Assays:
[1] = aging mice, long-term treatment
[2] = test system: superoxide dismutase, thioredoxin reductase, paraoxonase; settings: oxidative-induced rabbits, diet supplement
lipid peroxidation = settings: ethanol induced gastric ulcer rats and skin cancer rats; astaxanthin and its esters
[3] = young healthy adult female human subjects
[4] = diabetic mice vs control group
[5] = spontaneously hypertensive corpulent rats; mice on high fat plus high fructose diets
[6] = 0.08% astaxanthin fed, vs control group
[7] = compared to canthaxanthin and β-carotene
[8] = not given; remark: listed apart in the source
[9] = aged mice, one week's treatment
[10] = not given; remark: listed apart in the source
[11] = not given; remark: listed apart in the source
[12] = AD-model mice
[13] = in vivo
[14] = aged mice
[15] = FXN-KO mouse
photoreceptor = settings: in vivo
[16] = test system: diploid fibroblasts and mesenchymal stem cells
[17] = 850 mg twice daily, mean follow-up ~3 years
[18] = not given; remark: listed apart in the source
[19] = after 3 years
[20] = type 2 diabetes and mild to moderate depression
[21] = mouse model
[22] = 8-10 years after therapy
senescent cells = settings: H2O2-induced, via activation of AMPK pathway
[23] = test system: MCF-7 breast cancer cells
[24] = in vivo; remark: listed apart in the source
[25] = chronic heart failure patients
adipocytes = settings: mouse, in vivo
HepG2 cells = HepG2 cells and primary hepatocytes
[26] = patients with T2DM
[27] = from the liver into the bile

SMILES: CC1=C(/C=C/C(C)=C/C=C/C(C)=C/C=C/C=C(C)/C=C/C=C(C)/C=C/C2=C(C)C(=O)[C@@H](O)CC2(C)C)C(C)(C)C[C@H](O)C1=O [astaxanthin]
age-related oxidative stress and inflammatory response [1]: prevented the accumulation of age-related oxidative stress and inflammatory response
paraoxonase activity in serum [2]: inhibited
superoxide dismutase and thioredoxin reductase activity in serum [2]: enhanced activity of superoxide dismutase and thioredoxin reductase
anti-lipid peroxidation activity (lipid peroxidation): 80%
DNA oxidative damage biomarker [3]: reduced the DNA oxidative damage biomarker
urinary albumin level [4]: significantly lower than the control group
insulin sensitivity [5]: Improved insulin sensitivity
heart mitochondrial membrane potential and contractility index [6]: higher heart mitochondrial membrane potential and contractility index
antitumor activity [7]: significant antitumor activity
activity of natural killer cells (eight week supplementation): improved activity of natural killer cells
blood levels of astaxanthin (in vivo): increased blood levels of astaxanthin

SMILES: Oc1ccc(C=Cc2cc(O)cc(O)c2)cc1 [resveratrol]
uptake of glutamate (glial cells): increase the uptake of glutamate
growth rate of leukaemia cells (leukaemia cells): stop the growth rate of leukaemia cells

SMILES: NC(=O)c1ccc[n+]([C@@H]2O[C@H](COP(=O)([O-])O)[C@@H](O)[C@H]2O)c1 [Nicotinamide Mononucleotide, nicotinamide mononucleotide]
homeostasis of mitochondria and biochemical markers of muscle-health ([8]; 22 months old mice, to level of six months old mice): restore the homeostasis of mitochondria
age-related physiological declines ([8]; old mice): reduce the age-related physiological declines
cells after DNA damage repair [9]: indistinguishable from the cells of the young mice
impaired tolerance of glucose ([10]; only one dose): sufficient in normalizing the impaired tolerance of the glucose
levels of NAD+ ([10]; over sixty minutes): significant rises within the levels of NAD+
intolerance of glucose ([11]; in vivo): reversal of the intolerance of glucose
levels of NAD+ ([11]; liver and muscle): significantly increased
death rate of brain cell (brain cell): lower the death rate of brain cell
cognition [12]: restore cognition within AD-model mice
NAD+ levels within the heart [13]: increase the NAD+ levels within the heart
protection of heart from I/R injuries [13]: protect the heart from injuries of I/R
aortic stiffness [14]: normalizing the aortic stiffness
cardiac function [15]: restored near the normal levels
degeneration of photoreceptor (photoreceptor): prevent degeneration of photoreceptor

cognitive function, impact of long-term use [22]: did not show negative impact
SMILES: CN(C)C(=N)N=C(N)N [metformin]
aging in human cells ([16]; chronic low-dose treatment): delays aging in human cells
expression of GPx7 ([16]; low-dose treatment, by activating Nrf2): upregulates the expression of endoplasmic reticulum-localized GPx7
reduction of incidence of T2DM compared to placebo [17]: 31%
reduction of likelihood of CVD ([18]; otherwise healthy individuals): 6%
reduction of likelihood of CVD ([18]; those at high cardiovascular risk): 48%
reduction of likelihood of CVD ([18]; those at risk of frailty): 18%
body weight, LDL-cholesterol, atherosclerosis progression [19]: reductions in body weight, LDL-cholesterol
carotid artery intima-media thickness (primary outcome) [19]: no difference in the primary outcome
depressive symptoms [20]: improved depressive symptoms
lifespan and health span [21]: extends both lifespan and health span
lifespan (nematodes): extends the lifespan of nematodes

SMILES: COc1ccc2cc3[n+](cc2c1OC)CCc1cc2c(cc1-3)OCO2 [berberine]
development of senescence (senescent cells): significantly prevented the development of senescence
proliferation of MCF-7 breast cancer cells [23]: inhibits the proliferation
serum cholesterol, triglycerides and LDL-C [24]: reduced serum cholesterol, triglycerides and LDL-C
frequency and complexity of ventricular premature complexes [25]: decreased the frequency and complexity of ventricular premature complexes
left ventricular ejection fraction [25]: increased the left ventricular ejection fraction
adipocytes (adipocytes): shrunk adipocytes
cholesterol and triglyceride synthesis (HepG2 cells): inhibit cholesterol and triglyceride synthesis
alanine and aspartate transaminase levels [26]: reduces alanine and aspartate transaminase levels
cholesterol excretion [27]: increases cholesterol excretion from the liver into the bile
